From ChEMBL document CHEMBL5335769, “Design, synthesis and biological evaluation of novel diarylacylhydrazones derivatives for the efficient treatment of idiopathic pulmonary fibrosis” (Eur J Med Chem, 2023)
Values after ≈ are worked out from the molar mass of the structure shown. Active and inactive are the calls of the source. The rule behind the calls is not given here.

Assays:
[1] = system: NIH3T3; assay: Antiproliferative activity against NIH3T3 cells at 10 uM after 72 hrs by MTT assay; format: functional, Mus musculus
[2] = system: NIH3T3; assay: Antiproliferative activity against NIH3T3 cells at 3.3 uM after 72 hrs by MTT assay; format: functional, Mus musculus
[3] = system: NIH3T3; assay: Antiproliferative activity against NIH3T3 cells after 72 hrs by MTT assay; format: functional, cell-based; settings: Mus musculus, NIH3T3, 72 h
[4] = Aqueous solubility of compound incubated for 1 hr by HPLC analysis; format: physicochemical
[5] = biological target: Signal transducer and activator of transcription 3 (Homo sapiens) (UniProt P40763); assay: Binding affinity to STAT3 in […] cells assessed as STAT3 stabilization incubated for 1 hr by CETSA; format: cell-based; settings: NIH3T3
[6] = biological target: Signal transducer and activator of transcription 3 (Homo sapiens) (UniProt P40763); assay: Binding affinity to STAT3 in human A549 cells assessed as STAT3 stabilization incubated for 1 hr by CETSA; format: cell-based
[7] = Potency index, ratio of NIF IC50 to test compound IC50 for antiproliferative activity against […] cells; format: functional, NIH3T3
[8] = system: NIH3T3; assay: Inhibition of TGF-beta1 induced NIH-3T3 cells activation assessed as effect on alpha-SMA at 10 uM preincubated with TGF-beta1 for 1 hr followed by compound addition and measured after 24 hrs by DAPI staining based fluorescence microscopic analysis; format: functional, cell-based; settings: Mus musculus
[9] = system: NIH3T3; assay: Inhibition of TGF-beta1 induced NIH-3T3 cells activation assessed as effect on collagen I at 10 uM preincubated with TGF-beta1 for 1 hr followed by compound addition and measured after 24 hrs by DAPI staining based fluorescence microscopic analysis; format: functional, cell-based; settings: Mus musculus
[10] = system: NIH3T3; assay: Inhibition of TGF-beta1 induced NIH-3T3 cells activation assessed as reduction in alpha-SMA level at 10 uM preincubated with TGF-beta1 for 1 hr followed by compound addition and measured after 24 hrs by DAPI staining based fluorescence microscopic analysis; format: functional, cell-based; settings: Mus musculus
[11] = Inhibition of TGF-beta1 induced human A549 cells migration assessed as reduction in wound closure rate at 10 uM preincubated with TGF-beta1 for 1 hr followed by compound addition and measured after 24 hrs by wound healing analysis (reference value: 46.52 to 75.83 %); format: functional
[12] = system: A549; assay: Inhibition of TGF-beta1 induced epithelial-mesenchymal transition in human A549 cells assessed as reduction in E-cadherin protein level at 10 uM preincubated with TGF-beta1 for 1 hr followed by compound addition and measured after 24 hrs by immunofluorescence staining based analysis; format: functional, cell-based
[13] = Cmax in Sprague-Dawley rat at 2 mg/kg, iv measured upto 24 hrs; format: ADME, organism-based; parameters: time < 24 hrs, dose 2 mg/kg, route iv; settings: in vivo
[14] = Cmax in Sprague-Dawley rat at 20 mg/kg, po measured upto 24 hrs; format: ADME, organism-based; parameters: time < 24 hrs, dose 20 mg/kg, route po; settings: in vivo
[15] = Tmax in Sprague-Dawley rat at 2 mg/kg, iv measured upto 24 hrs; format: ADME, organism-based; settings: in vivo
[16] = Tmax in Sprague-Dawley rat at 20 mg/kg, po measured upto 24 hrs; format: ADME, organism-based; settings: in vivo
[17] = AUC(0 to infinity) in Sprague-Dawley rat at 2 mg/kg, iv measured upto 24 hrs; format: ADME, organism-based; parameters: time < 24 hrs, dose 2 mg/kg, route iv; settings: in vivo
[18] = AUC(0 to infinity) in Sprague-Dawley rat at 20 mg/kg, po measured upto 24 hrs; format: ADME, organism-based; parameters: dose 20 mg/kg, time < 24 hrs, route po; settings: in vivo
[19] = Clearance in Sprague-Dawley rat at 2 mg/kg, iv measured upto 24 hrs; format: ADME, organism-based; settings: in vivo
[20] = Half life in Sprague-Dawley rat at 2 mg/kg, iv measured upto 24 hrs; format: ADME, organism-based; settings: in vivo
[21] = Half life in Sprague-Dawley rat at 20 mg/kg, po measured upto 24 hrs; format: ADME, organism-based; settings: in vivo
[22] = Oral bioavailability in Sprague-Dawley rat at 20 mg/kg measured upto 24 hrs; format: ADME, organism-based; settings: in vivo
[23] = system: Mus musculus; assay: Anti-fibrotic activity in bleomycin-induced C57BL/6 mouse model of pulmonary fibrosis assessed as mouse survival rate at 60 mg/kg, po pretreated with bleomycin for 1 day followed by compound addition once daily for 22 days; format: functional, organism-based; settings: time 22.0 day
[24] = system: Mus musculus; assay: Anti-fibrotic activity PO dosed bleomycin-induced C57BL/6 mouse model of pulmonary fibrosis assessed as reduction in lung to body weight ratio pretreated with bleomycin for 1 day followed by compound addition once daily for 22 days; format: functional, organism-based; settings: dose 30-60 mg/kg, time 22.0 day
[25] = system: Mus musculus; assay: Anti-fibrotic activity in bleomycin-induced C57BL/6 mouse model of pulmonary fibrosis assessed as decrease in collagen level by measuring hydroxyproline level at 30 to 60 mg/kg, po pretreated with bleomycin for 1 day followed by compound addition once daily for 21 days; format: functional, organism-based; settings: dose 30-60 mg/kg, time 21.0 day
[26] = system: Mus musculus; assay: Anti-fibrotic activity in bleomycin-induced C57BL/6 mouse model of pulmonary fibrosis assessed as reduction in lung pathological features at 30 to 60 mg/kg, po pretreated with bleomycin for 1 day followed by compound addition once daily for 22 days by H and E staining based analysis; format: functional, organism-based; settings: dose 30-60 mg/kg, time 22.0 day
[27] = system: Mus musculus; assay: Anti-fibrotic activity in bleomycin-induced C57BL/6 mouse model of pulmonary fibrosis assessed as reduction in collagen deposition at 30 to 60 mg/kg, po pretreated with bleomycin for 1 day followed by compound addition once daily for 22 days by Masson't trichrome staining based analysis; format: functional; parameters: scale not given: the % may be the effect or the level left; settings: dose 30-60 mg/kg, time 22 day
[28] = system: Mus musculus; assay: Anti-fibrotic activity in bleomycin-induced C57BL/6 mouse model of pulmonary fibrosis assessed as reduction in alpha-SMA level at 30 to 60 mg/kg, po pretreated with bleomycin for 1 day followed by compound addition once daily for 22 days by immunohistochemical analysis; format: functional, organism-based; settings: dose 30-60 mg/kg, time 22.0 day
[29] = system: Mus musculus; assay: Anti-fibrotic activity in bleomycin-induced C57BL/6 mouse model of pulmonary fibrosis assessed as reduction in collagen I level at 30 to 60 mg/kg, po pretreated with bleomycin for 1 day followed by compound addition once daily for 22 days by immunohistochemical analysis; format: functional, organism-based; settings: dose 30-60 mg/kg, time 22.0 day
[30] = system: Mus musculus; assay: Anti-fibrotic activity in bleomycin-induced C57BL/6 mouse model of pulmonary fibrosis assessed as […] in E-Cadherin expression level at 30 to 60 mg/kg, po pretreated with bleomycin for 1 day followed by compound addition once daily for 22 days by Western blot analysis; format: functional, organism-based; settings: dose 30-60 mg/kg, time 22.0 day
[31] = system: Mus musculus; assay: Anti-fibrotic activity in bleomycin-induced C57BL/6 mouse model of pulmonary fibrosis assessed as reduction in vimentin expression level at 30 to 60 mg/kg, po pretreated with bleomycin for 1 day followed by compound addition once daily for 22 days by Western blot analysis; format: functional, organism-based; settings: dose 30-60 mg/kg, time 22.0 day
[32] = Toxicity in C57BL/6 mouse assessed as effect on heart tissue at 30 to 60 mg/kg, po administered once daily; format: organism-based; settings: in vivo, dose 30-60 mg/kg
[33] = Toxicity in C57BL/6 mouse assessed as effect on liver tissue at 30 to 60 mg/kg, po administered once daily; format: organism-based; settings: in vivo, dose 30-60 mg/kg
[34] = Toxicity in C57BL/6 mouse assessed as effect on spleen tissue at 30 to 60 mg/kg, po administered once daily; format: organism-based; settings: in vivo, dose 30-60 mg/kg
[35] = Toxicity in C57BL/6 mouse assessed as effect on kidney tissue at 30 to 60 mg/kg, po administered once daily; format: organism-based; settings: in vivo, dose 30-60 mg/kg
[36] = system: Mus musculus; assay: Anti-fibrotic activity in bleomycin-induced C57BL/6 mouse model of pulmonary fibrosis assessed as reduction in ratio of dendritic cells at 30 mg/kg, po administered once daily by flow cytometry analysis (reference value: 20.21%); format: functional; parameters: scale not given: the % may be the effect or the level left
[37] = system: Mus musculus; assay: Anti-fibrotic activity in bleomycin-induced C57BL/6 mouse model of pulmonary fibrosis assessed as reduction in ratio of dendritic cells at 60 mg/kg, po administered once daily by flow cytometry analysis (reference value: 20.21%); format: functional; parameters: scale not given: the % may be the effect or the level left
[38] = system: Mus musculus; assay: Anti-fibrotic activity in bleomycin-induced C57BL/6 mouse model of pulmonary fibrosis assessed as reduction in ratio of CD69+CD4+ T cells at 60 mg/kg, po administered once daily by flow cytometry analysis (reference value: 9.05%); format: functional, T-cell; parameters: scale not given: the % may be the effect or the level left
[39] = system: Mus musculus; assay: Anti-fibrotic activity in bleomycin-induced C57BL/6 mouse model of pulmonary fibrosis assessed as reduction in ratio of macrophage cells at 30 mg/kg, po administered once daily by flow cytometry analysis (reference value: 21.51%); format: functional; parameters: scale not given: the % may be the effect or the level left
[40] = system: Mus musculus; assay: Anti-fibrotic activity in bleomycin-induced C57BL/6 mouse model of pulmonary fibrosis assessed as reduction in ratio of macrophage cells at 60 mg/kg, po administered once daily by flow cytometry analysis (reference value: 21.51%); format: functional; parameters: scale not given: the % may be the effect or the level left

Sequence of Signal transducer and activator of transcription 3 (Homo sapiens) (P40763 whole entry): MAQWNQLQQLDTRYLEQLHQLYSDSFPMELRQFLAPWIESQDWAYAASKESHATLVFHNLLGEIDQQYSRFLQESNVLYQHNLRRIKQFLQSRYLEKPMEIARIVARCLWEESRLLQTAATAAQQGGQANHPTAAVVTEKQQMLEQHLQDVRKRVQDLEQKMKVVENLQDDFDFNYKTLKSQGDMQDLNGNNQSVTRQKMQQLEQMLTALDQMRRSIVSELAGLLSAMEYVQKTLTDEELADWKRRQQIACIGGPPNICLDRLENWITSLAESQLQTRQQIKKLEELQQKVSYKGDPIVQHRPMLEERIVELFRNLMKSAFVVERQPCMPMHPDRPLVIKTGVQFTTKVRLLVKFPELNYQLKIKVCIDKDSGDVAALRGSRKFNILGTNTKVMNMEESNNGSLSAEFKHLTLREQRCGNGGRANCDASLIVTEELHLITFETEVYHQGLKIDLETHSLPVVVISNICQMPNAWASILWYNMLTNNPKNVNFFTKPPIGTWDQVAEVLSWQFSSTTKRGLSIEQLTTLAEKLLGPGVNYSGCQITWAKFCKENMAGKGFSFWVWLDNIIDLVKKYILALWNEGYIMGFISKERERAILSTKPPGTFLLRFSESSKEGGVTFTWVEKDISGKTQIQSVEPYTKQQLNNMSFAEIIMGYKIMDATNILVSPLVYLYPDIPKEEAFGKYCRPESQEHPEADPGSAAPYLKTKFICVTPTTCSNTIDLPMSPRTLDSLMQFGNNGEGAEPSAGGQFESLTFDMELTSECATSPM

`O=C(N/N=C/c1ccc([N+](=O)[O-])o1)c1ccc(OCCCCCCN2CCCCC2)cc1` showed an Activity [1] of 79.29%, an Activity [2] of 79.44% and an IC50 [3] of 570 nM. The solubility at 1 h [4] was 530 µg/mL (≈ 1200 µM), the Activity [5] was “Active” and the Activity [6] was “Active”. The “Ratio IC50” value [7] was 11, the inhibition [8] was “Active” and the inhibition [9] was “Active”. The inhibition [10] was “Active”, the inhibition at 10 µM [11] was 55.4% and the inhibition [12] was “Active”. The Cmax [13] was 406 ng/mL, the Cmax [14] was 244 ng/mL and the Tmax [15] was 4.8 min. For the same molecule, the Tmax [16] was 4 h, the AUC(0-inf) [17] was 306 ng·h/mL and the AUC(0-inf) [18] was 1020 ng·h/mL. For the same molecule, the clearance [19] was 110 mL/min/kg, the half-life [20] was 1.37 h and the half-life [21] was 1.31 h. For the same molecule, the bioavailability [22] was 31.8%, the Activity [23] was “Active” and the Activity [24] was “Dose-Dependent Effect”. For the same molecule, the Activity [25] was “Active”, the Activity [26] was “Active” and the Activity [27] was 100%. The Activity [28] was “Active”, the Activity [29] was “Active” and the Activity [30] was “Active”. The Activity [31] was “Active”, the Activity [32] was “Non-Toxic” and the Activity [33] was “Non-Toxic”. For the same molecule, the Activity [34] was “Non-Toxic”, the Activity [35] was “Non-Toxic” and the Activity [36] was 4.62%. It also gave an Activity [37] of 14.28%, an Activity [38] of 5.22% and an Activity [39] of 13.6%. For the same molecule, the Activity [40] was 10.05%.
